Values quoted from earlier work in patent US20030215409A1, “Process for the treatment of human keratinous fibers” (L'OREAL, priority 2002, published 2003).

System: hair
Details: hair densification, current compositions

In the case of `Nc1ccnc(N)[n+]1[O-]` [aminexil], the “time after which the user begins to have a benefit” value is given as 1.5 months.
